Measurements published in patent publication US20260327255A1, “LIGAND-DIRECTED COVALENT MODIFICATION OF AMINO ACID SIDE CHAINS USING CYCLIC IMINE MANNICH ELECTROPHILES” (Purdue Research Foundation, priority 2022, published 2026).
Substitutions are numbered along the chain they refer to. Where a SMILES comes first, the peptide text is derived from it. [ ]: non-standard residue; d: D form. The star is where a group is joined. Benzoyl(4-OPh) = O=C(c1ccc(Oc2ccccc2)cc1)*; Lys(Et2) = CCN(CC)CCCC[C@H](N)C(=O)O; Gly(cPent) = N[C@H](C(=O)O)C1CCCC1

Key:
mutant CBX8 (Y39F) = target: T1, mutant CBX8 (Y39F) (Homo sapiens, UniProt Q9HC52, Y39F); assay: Time-dependent fluorescence polarization displacement assay, CBX8 Y39F; format: binding
T1 construct: Time dependent fluorescence polarization displacement assays of indicated chromodomains with P2
T1 sequence (Q9HC52 11-69 Y39F limits assumed): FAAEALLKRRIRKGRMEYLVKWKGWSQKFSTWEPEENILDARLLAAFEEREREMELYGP
Method: (§1) (A) The fraction of labeled protein as determined by UV integration on reverse phase HPLC. CBX8 ChD and P2 were incubated at 10 μM each for 16 hours at 37° C. UV absorption measured at 215 nm. (B) Mass spectra of CBX8 ChD treated overnight with inhibitor P2 (top, red) and control CBX8 ChD (bottom, green). Observed masses are shown (expected average mass for CBX8 ChD=8792 Da). The observed mass difference (895 Da) corresponds to the expected mass change of 901 Da. (C) Time dependent fluorescence polarization displacement assays of indicated chromodomains with P2. Assays were conducted using SW2_123 as an FP probe (FIG. S15) at 100 nM. All proteins were used at 2 μM in PBS (pH 7), 0.02% Tween 20. Error bars represent s.d.
To validate labeling of the targeted tyrosine residue (Y39), this amino acid was mutated to phenylalanine, which is structurally similar but lacks reactivity to the cyclic imine. […] Similarly, for CBX2 ChD, no change in apparent affinity was observed over time in the FP assay (FIG. 13C), and no labeled protein was detected by MS.

[1] = test system: HOXA9 gene expression in THP1 cells; assay: qRT-PCR analysis of HOXA9 gene expression in THP1 cells; format: cell-based
Method: FIG. 14 Cellular activity of covalent, cyclic imine inhibitors to CBX8. qRT-PCR analysis of HOXA9 gene expression in THP1 cells after 48 h of compound treatment at the indicated dose. N=3. Error bars represent s.d. Statistical significance determined by Student's T test. *=p<0.05, **=p<0.01, ***=p<0.001, ****=p<0.0001.
FIG. 15 Cellular activity of covalent, cyclic imine inhibitors to CBX8. (A) qRT-PCR analysis of HOXA9 gene expression in THP1 cells after 48 h of compound treatment at the indicated dose. N=3. Error bars represent s.d. Statistical significance calculated using student's t-test. **=p<0.01, ****=p<0.0001. (B) qRT-PCR analysis of HOXA9 gene expression in THP1 cells treated with increasing doses of compound for 48 h. N=3. Error bars represent s.d.
Imine inhibitors were assessed for improved cellular activity using a disease-relevant cell model. […] Using this same model, we compared the covalent inhibitors with non-covalent inhibitor SW2_110A in THP1 cell lines. […] The two optimal inhibitors P1bP and P2 were subsequently tested for dose-dependency in this cellular assay. Dose curves indicate that these covalent inhibitors have 30 to 100-fold improvement of cellular activity compared to the non-covalent inhibitor (FIG. 15B).

[2] = Stability of cyclic imine inhibitor P1b; format: physicochemical
Method: The sample was split, and one portion was further reduced with sodium cyanoborohydride. LC/MS: UV traces, low resolution mass spectrum. […] Stability was similarly assayed with 24-hour incubation in either 100 mM HCl or 100 mM NaOH.

[3] = target: T2, wild-type CBX8 chromodomain (Homo sapiens, UniProt Q9HC52); assay: Time-dependent fluorescence polarization displacement assay, CBX8; format: binding; settings: for time-dependent change of potency (IC50): further incubation; for IC50 without additional incubation time (in words): no additional incubation
T2 construct: recombinant CBX8 chromodomain (ChD)
T2 sequence (Q9HC52 11-69 limits assumed): T1 sequence (Q9HC52 11-69 Y39F limits assumed) with F29Y
Method: as §1, with “Observed masses are shown (expected average mass for CBX8 ChD=8792 Da). The observed mass difference (895 Da) corresponds to the expected mass change of 901 Da.” left out
A fluorescence polarization (FP) displacement assay was used to evaluate the covalent binding of cyclic imine warhead containing inhibitors.
To validate labeling of the targeted tyrosine residue (Y39), this amino acid was mutated to phenylalanine, which is structurally similar but lacks reactivity to the cyclic imine.

CBX8 ChD = target: T3, CBX8 ChD (Homo sapiens, UniProt Q9HC52); settings: cited from earlier work
T3 construct: recombinant CBX8 chromodomain (ChD)
T3 sequence (Q9HC52 11-69 limits assumed): T1 sequence (Q9HC52 11-69 Y39F limits assumed) with F29Y

endogenous CBX8 = target: T4, endogenous CBX8 (Homo sapiens, UniProt Q9HC52); assay: In-gel fluorescence labeling in HEK293T cell lysates; format: binding; settings: ~20 μM, 20 eq competitor with P2
T4 sequence (Q9HC52 1-389): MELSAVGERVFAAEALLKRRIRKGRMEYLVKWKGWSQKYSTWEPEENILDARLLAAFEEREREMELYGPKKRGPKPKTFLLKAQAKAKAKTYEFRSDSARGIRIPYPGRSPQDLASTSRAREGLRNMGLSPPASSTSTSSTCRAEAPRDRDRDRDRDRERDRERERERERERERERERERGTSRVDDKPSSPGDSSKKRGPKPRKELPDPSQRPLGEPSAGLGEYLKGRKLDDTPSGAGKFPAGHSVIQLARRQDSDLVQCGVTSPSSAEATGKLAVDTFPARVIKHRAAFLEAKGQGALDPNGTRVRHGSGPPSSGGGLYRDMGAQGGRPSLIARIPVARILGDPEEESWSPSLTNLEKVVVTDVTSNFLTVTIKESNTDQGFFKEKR
Method: After incubation of the inhibitor P2 at 1 μM in HEK293T cell lysates for 1 h at 37° C., click chemistry was conducted to conjugate TAMRA-azide to the C-terminal alkyne of P2 prior to SDS-PAGE.

[4] = test system: CBX8 binding to chromatin; CBX8-mediated gene expression; settings: MLL-AF9 transformed leukemia; cited from earlier work

Row | Structure (SMILES) | IC50 (mutant CBX8 (Y39F)) [µM] | reduction of HOXA9 gene expression, 10 μM P1b vs 100 μM SW2_110A ([1]; 10 μM P1b vs 100 μM SW2_110A) | reduction of HOXA9 expression versus non-covalent inhibitor ([1]; THP1, 48 h, vs SW2_110A) | degradation ([2]; 100 mM HCl, 100 mM NaOH and neutral PBS, 96 h, room temperature) | conversion of imine to amine on NaBH3CN after 24-hour incubation in PBS ([2]; 24 h PBS, then sodium cyanoborohydride (10 eq.)) | time-dependent change of potency (IC50) [3] | IC50 without additional incubation time (in words) [3] | selectivity over CBX2 (CBX8 ChD; CBX8 over CBX2) [fold] | Kd (CBX8 ChD) [µM] | selectivity for CBX8 over CBX4, CBX6, and CBX7 (CBX8 ChD; in words) | effect on P2 protein labeling on co-incubation (endogenous CBX8) | CBX8-mediated gene expression [4] | inhibition of CBX8 binding to chromatin [4]
1 | CC[C@H](C)[C@H](NC(=O)[C@@H](NC(=O)c1ccc(Oc2ccccc2)cc1)C1CCCC1)C(=O)N[C@@H](CCCCN(CC)CCCCCCN1CCN=CC1=O)C(=O)N[C@@H](CO)C(N)=O [Compound P1b] | 7.3 | reduced gene expression to a similar extent as 100 μM SW2_110A | most effective at reducing HOXA9 gene expression | no significant degradation | full conversion of imine to amine | time-dependent increase of potency | comparable IC50 values | – | – | – | – | – | –
2 | CC[C@H](C)[C@H](NC(=O)[C@@H](NC(=O)c1ccc(Oc2ccccc2)cc1)C1CCCC1)C(=O)N[C@@H](CCCCN(CC)CC)C(=O)N[C@@H](CO)C(N)=O [SW2_110A] ({Benzoyl(4-OPh)}-[Gly(cPent)]I[Lys(Et2)]S-NH2) | – | – | – | – | – | did not | comparable IC50 values | 6 | 0.8 | high selectivity | protein labeling was reduced | reduces CBX8-mediated gene expression | inhibits CBX8 binding to chromatin
